Experimental data published in patent US8809280B2, “Therapeutic peptides” (Lytix Biopharma AS, priority 2009, dated 2014).
Converted amounts (≈) assume the structure as drawn. Like-named read-outs stand apart in the source and are kept apart here. One block for each compound: values may come before it.

How the values were obtained:
[1] = test system: Staphylococcus aureus (ATTC 25923); test: microbe, parasite or virus in culture; assay type: cell-based
Summary of the method: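 Di-TFA salts tested in duplicate at 0.5–200 μg/ml against exponential-phase bacteria at 2×10^6 cfu/ml grown in 2% peptone water. Growth judged by well turbidity, with no-peptide and gentamicin controls.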

[2] = test system: methicillin resistant Staphylococcus aureus (ATCC 33591); test: microbe, parasite or virus in culture; assay type: cell-based
Summary of the method: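 Di-TFA salts tested in duplicate at 200 down to 0.5 μg/ml against exponentially grown bacteria at 2×10^6 cfu/ml. Growth judged by well turbidity, with no-peptide and gentamicin controls.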

human red blood cells = test: cells; assay type: cell-based
Summary of the method: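 Washed heparinized RBCs, diluted to 10% hematocrit then to 1% v/v final, incubated with compounds in PBS (1–1000 μg/mL) for 1 h at 37 °C with agitation. Hemoglobin release read at 405 nm against PBS (0%) and 0.1% Triton X-100 (100%); value reported is concentration giving 50% hemolysis.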

[3] = test system: Escherichia coli (ATTC 25922); test: microbe, parasite or virus in culture; assay type: cell-based
Summary of the method: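 Broth dilution in 2% Bacto Peptone water, inoculum 2×10^6 cfu/ml of exponential-phase bacteria; compounds (di-TFA salts) tested in duplicate at 200 down to 0.5 μg/ml. Growth judged by well turbidity, with no-peptide negative and gentamicin positive controls.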

[4] = test system: methicillin resistant Staphylococcus epidermidis (ATCC 27626); test: microbe, parasite or virus in culture; assay type: cell-based
Summary of the method: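 Exponentially grown bacteria (2% peptone water) at 2×10^6 cfu/ml exposed in duplicate to di-TFA salts at 0.5–200 μg/ml. Growth or no growth judged by well turbidity; no-peptide and gentamicin controls included.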

α-chymotrypsin = α-chymotrypsin (Bos taurus, UniProt P00766, DEL14-15/DEL147-148); test: Stability against α-chymotrypsin; assay type: in vitro ADME; details: over a period of 48 hours
Description: The stability testing against α-chymotrypsin was conducted by dissolving the desired compounds to 1 mg/ml in water. α-Chymotrypsin was dissolved to 0.1 mg/ml in 1 mM HCl containing 2 mM CaCl2. The enzymatic digestion was performed in 100 mM TRIS HCl containing 10 mM CaCl2. Final enzyme concentration was 2 μg/ml, and final peptide concentration was 100 μg/ml. Total volume was 0.5 ml.
15 μl samples were collected at 0, 15, 30, 60, 120 and 240 min in addition to the 24 and 48 hours samples. To the samples it was added an external standard (atenolol hydrochloride) and 100 μl 10% acetic acid to terminate digestion before it was diluted to 1 ml with water.
For every test there were done a negative control without enzyme to ensure that degradation was due to enzyme activity and not other factors. Succinyl-ala-ala-pro-phe-para nitroanhiine was used as positive control. All test were run in triplicates.

DU-145 = test: Compound 7 panel screening; assay type: cell-based; details: Homo sapiens, prostate carcinoma
Description: (§1) Compound 7 described in Example 2 was screened against two normal cell lines and nine cancer cell lines.
(§2) All cell lines were of human origin. Stock solution of compound 7 was dissolved in assay media containing 10% DMSO. Three parallel experiments were performed against each cell line.

MRC-5 [5] = test: Compound 7 panel screening; assay type: cell-based; details: Homo sapiens, MRC5, lung, normal, fibroblast
Description: as §1, §2

Kelly = test: Compound 7 panel screening; assay type: cell-based; details: Homo sapiens, neuroblastoma
Description: as §1, §2

HT-29 = test: Compound 7 panel screening; assay type: cell-based; details: Homo sapiens, colon colorectal adenocarcinoma
Description: as §1, §2

UT-SCC-34A = test: Compound 7 panel screening; assay type: cell-based; details: Homo sapiens, supraglottic larynx squamous oral carcinoma
Description: as §1, §2

UT-SCC-24A = test: Compound 7 panel screening; assay type: cell-based; details: Homo sapiens, tongue squamous oral carcinoma
Description: as §1, §2

MDA-MB435 = test: Compound 7 panel screening; assay type: cell-based; details: Homo sapiens, MDA-MB-435, breast carcinoma
Description: as §1, §2

OVCAR-3 = test: Compound 7 panel screening; assay type: cell-based; details: Homo sapiens, ovary adenocarcinoma
Description: as §1, §2

HUV-EC-C = test: Compound 7 panel screening; assay type: cell-based; details: Homo sapiens, umbilical vein, normal, endothelial
Description: as §1, §2

FEMX = test: Compound 7 panel screening; assay type: cell-based; details: Homo sapiens, Fem-X, skin melanoma
Description: as §1, §2

Ramos = test: Compound 7 panel screening; assay type: cell-based; details: Homo sapiens, Burkitt's lymphoma
Description: as §1, §2

A20 = test: cells; assay type: cell-based
Description: Cancer Cell Lines A20 or MethA Anticancer assays: 500 μg/ml

MRC-5 [6] = test: Toxicity assay MRC-5; assay type: cell-based; details: highest concentration tested 500 μg/ml
Description: Cells for Toxicity Studies Used MRC-5 and human RBC MRC-5 assay: 500 μg/ml

[7] = Phospholipid vesicle based barrier model permeability; assay type: in vitro ADME
Text: Encouraged by the theoretical calculations, the permeability of the β^2,2-amino acid derivatives was further investigated using a recently established phospholipid vesicle based barrier model (Flaten et al. Eur. J. Pharm. Sci. [2006] 27, 80-90).

[8] = test system: Pseudomonas aeruginosa (ATCC 27853); test: microbe, parasite or virus in culture; assay type: cell-based; details: for Therapeutic index P. aeruginosa: EC50 RBC divided by MIC; for MIC: Pseudomonas aeruginosa, ATCC27853, Example 4, ATCC 27853, di-trifluoroacetate salts, highest concentration tested 200 μg/ml, read-out: MIC P. aeruginosa
Description: Each compound was tested in duplicates at 200, 100, 50, 35, 15, 10, 5, 2.5, 1, 0.5 μg/ml. All tested compounds were di-trifluoroacetic acid salts.

[9] = Example 2, values separated by / are repeat tests
[10] = Staphylococcus aureus, ATCC25923, Example 4, ATCC 25923, di-trifluoroacetate salts, highest concentration tested 200 μg/ml, read-out: MIC S. aureus
[11] = Staphylococcus aureus, ATCC33591, Example 4, ATCC 33591, di-trifluoroacetate salts, highest concentration tested 200 μg/ml, read-out: MIC MTRSA
[12] = Erythrocyte, Example 4, hemolytic activity, human red blood cells, highest concentration tested 1000 μg/ml, read-out: EC50 RBC
[13] = phospholipid vesicle based barrier model
[14] = Escherichia coli, ATCC25922, Example 4, ATCC 25922, di-trifluoroacetate salts, highest concentration tested 200 μg/ml, read-out: MIC E. coli
[15] = Staphylococcus epidermidis, ATCC 27626 / MRSE, Example 4, ATCC 27626, di-trifluoroacetate salts, highest concentration tested 200 μg/ml, read-out: MIC MRSE

SMILES: N=C(N)NCCC[C@H](NC(=O)C(CN)(Cc1ccc2ccccc2c1)Cc1ccc2ccccc2c1)C(N)=O [Compound 4g]
- MBC S. aureus ([1]; ATTC 25923): 6.6 µM (≈ 3.46 µg/mL)
- MIC ([1]; ATTC 25923, read-out: MIC S. aureus): 6.6 µM
- MBC MRSA ([2]; ATCC 33591): 5.3 µM (≈ 2.78 µg/mL)
- MIC MRSA ([2]; ATCC 33591): 5.0 µM (≈ 2.62 µg/mL)
- EC50 (human red blood cells; red cells of human): 470 µM
- MBC E. coli ([3]; ATTC 25922): 266 µM (≈ 140 µg/mL)
- MIC ([3]; ATTC 25922, read-out: MIC E. coli): 266 µM
- MBC MRSE ([4]; ATCC 27626): 6.6 µM (≈ 3.46 µg/mL)
- MIC ([4]; ATCC 27626, read-out: MIC MRSE): 6.6 µM
- proteolytic stability against α-chymotrypsin (α-chymotrypsin): no degradation could be detected

SMILES: NCCNC(=O)C(CN)(Cc1ccc2ccccc2c1)Cc1ccc2ccccc2c1 [Compound 7, 3-amino-N-(2-aminoethyl)-2,2-bis(naphthalen-2-ylmethyl)propanamide]
- Antimicrobial potency (MIC) S. aureus [1, 9]: 5 µg/mL
- MIC ([1]; Staphylococcus aureus, Example 2, values separated by / are repeat tests, read-out: Antimicrobial potency (MIC) S. aureus): 2.5 µg/mL
- MIC ([2]; Staphylococcus aureus, ATCC 33591 / MRSA, Example 2, values separated by / are repeat tests, read-out: Antimicrobial potency (MIC) MRSA): 5 µg/mL
- IC50 (DU-145): 15.2 µg/mL (≈ 37 µM)
- IC50 (MRC-5 [5]): 8.21 µg/mL (≈ 19.9 µM)
- IC50 (Kelly): 3.9 µg/mL (≈ 9.48 µM)
- IC50 (HT-29): 15.4 µg/mL (≈ 37.5 µM)
- IC50 (UT-SCC-34A): 16.2 µg/mL (≈ 39.3 µM)
- IC50 (UT-SCC-24A): 14.2 µg/mL (≈ 34.5 µM)
- IC50 (MDA-MB435): 6.54 µg/mL (≈ 15.9 µM)
- IC50 (OVCAR-3): 18.1 µg/mL (≈ 43.9 µM)
- IC50 (HUV-EC-C): 3.81 µg/mL (≈ 9.26 µM)
- IC50 (FEMX): 17.1 µg/mL (≈ 41.6 µM)
- IC50 (Ramos): 2.61 µg/mL (≈ 6.34 µM)
- EC50 (human red blood cells; Homo sapiens, Erythrocyte, Example 2, highest concentration tested 1000 μg/ml, * low solubility in the test media, read-out: Toxicity RBC (EC50)): 292 µg/mL
- MIC ([3]; Escherichia coli, Example 2, values separated by / are repeat tests, read-out: Antimicrobial potency (MIC) E. coli): 15 µg/mL
- Antimicrobial potency (MIC) MRSE [4, 9]: 5 µg/mL
- MIC ([4]; Staphylococcus epidermidis, ATCC 27626 / MRSE, Example 2, values separated by / are repeat tests, read-out: Antimicrobial potency (MIC) MRSE): 2.5 µg/mL
- Anticancer potency (IC50) A20 (A20; Example 2, highest concentration tested 500 μg/ml, * low solubility in the test media (Table 2)): 0.7 µg/mL
- Anti-Cancer Selectivity MRC-5/A20 (A20; ratio of MRC-5 to A20 values): 19.3-20
- Anti-Cancer Selectivity RBC/A20 (A20; ratio of RBC EC50 to A20 IC50): 417
- Toxicity MRC-5 (MRC-5 [6]; Example 2): 14 µg/mL
- IC50 (MRC-5 [6]; Homo sapiens, MRC5, Example 2): 13.5 µg/mL (≈ 32.8 µM)

SMILES: CN(C)CCN1CCN(C(=O)C(CN)(Cc2ccc3ccccc3c2)Cc2ccc3ccccc3c2)CC1 [Compound 4c]
- MBC S. aureus ([1]; ATTC 25923): 7.2 µM (≈ 3.66 µg/mL)
- Therapeutic index S. aureus ([1]; ATTC 25923): 20
- MBC MRSA ([2]; ATCC 33591): 7.2 µM (≈ 3.66 µg/mL)
- MIC MRSA ([2]; ATCC 33591): 7.2 µM (≈ 3.66 µg/mL)
- Therapeutic index MRSA ([2]; ATCC 33591): 120
- MIC ([2]; ATCC 33591, read-out: MIC MTRSA): 3.4 µM
- EC50 RBC (human red blood cells; Example 1, 50% hemolysis of human red blood cells, highest concentration tested 1000 μg/ml): — (The notation “—”denotes no detectable activity (MIC or EC50) within the concentration range tested.)
- EC50 (human red blood cells; red cells of human): 409 µM
- permeability, model's classification of absorption ([7]; not told): moderately absorbed in humans
- MBC E. coli ([3]; ATTC 25922): 289 µM (≈ 147 µg/mL)
- Therapeutic index E. coli ([3]; ATTC 25922): 8.5
- MBC MRSE ([4]; ATCC 27626): 7.2 µM (≈ 3.66 µg/mL)
- Therapeutic index MRSE ([4]; ATCC 27626): 29
- proteolytic stability against α-chymotrypsin (α-chymotrypsin): no degradation could be detected

Further lines, with some results ahead:

- MIC [1, 10]: 3.9 µM
- MIC [2, 11]: 7.8 µM
- permeability, model's classification of absorption [7, 13]: moderately absorbed in humans
- MIC [3, 14]: 24 µM
- MIC [4, 15]: 3.9 µM
- MIC [8]: 55 µM
SMILES: NCCNC(=O)C(CN)(Cc1ccc2ccccc2c1)Cc1ccc2ccccc2c1 [Entry 7c]
- Therapeutic index S. aureus ([1]; EC50 RBC divided by MIC): 117
- Therapeutic index MRSA ([2]; EC50 RBC divided by MIC): 59
- EC50 (human red blood cells; [12]): 457 µM
- Therapeutic index E. coli ([3]; EC50 RBC divided by MIC): 19
- Therapeutic index MRSE ([4]; EC50 RBC divided by MIC): 117
- Therapeutic index P. aeruginosa [8]: 8.3

- MIC [1, 10]: 7.5 µM
- MIC [2, 11]: 7.5 µM
- permeability, model's classification of absorption [7, 13]: moderately absorbed in humans
- MIC [3, 14]: 23 µM
- MIC [4, 15]: 7.5 µM
- MIC [8]: 300 µM
SMILES: CN(C)CCNC(=O)C(CN)(Cc1ccc2ccccc2c1)Cc1ccc2ccccc2c1 [Entry 6c]
- Therapeutic index S. aureus ([1]; EC50 RBC divided by MIC): 16
- Therapeutic index MRSA ([2]; EC50 RBC divided by MIC): 16
- EC50 (human red blood cells; [12]): 117 µM
- Therapeutic index E. coli ([3]; EC50 RBC divided by MIC): 5.1
- Therapeutic index MRSE ([4]; EC50 RBC divided by MIC): 16
- Therapeutic index P. aeruginosa [8]: 0.4

- MIC [1, 10]: 15 µM
- MIC [2, 11]: 7.4 µM
- experimental permeability values, rank ([7]; among 4c, 5c, 6c and 7c): highest permeability
- permeability, model's classification of absorption [7, 13]: moderately absorbed in humans
- MIC [3, 14]: 22 µM
- MIC [4, 15]: 15 µM
- MIC [8]: > 200 µg/mL
SMILES: CN1CCN(C(=O)C(CN)(Cc2ccc3ccccc3c2)Cc2ccc3ccccc3c2)CC1 [Entry 5c]
- Therapeutic index S. aureus ([1]; EC50 RBC divided by MIC): 20
- Therapeutic index MRSA ([2]; EC50 RBC divided by MIC): 41
- EC50 (human red blood cells; [12]): 303 µM
- Therapeutic index E. coli ([3]; EC50 RBC divided by MIC): 14
- Therapeutic index MRSE ([4]; EC50 RBC divided by MIC): 20
